Experimental data as given in patent publication US12527835B2, “Brevican-binding peptides for brain tumor imaging” (The Brigham and Women's Hospital, Inc., priority 2018, dated 2026).
Where a SMILES comes first, the peptide text is derived from it. [ ]: non-standard residue; d: D form.

Columns and labels:
[1] = target: T1, recombinant BΔg protein (deglycosylated brevican) (Homo sapiens, UniProt Q96GW7); experiment: Octet steady state binding affinity to recombinant BΔg; details: steady state analysis, Octet RED, peptide up to 10 μM; read-out: KD (dissociation constant) to BΔg protein
T1 construct: purchased R&D Systems 4009-BC-050
T1 sequence (Q96GW7 23-911): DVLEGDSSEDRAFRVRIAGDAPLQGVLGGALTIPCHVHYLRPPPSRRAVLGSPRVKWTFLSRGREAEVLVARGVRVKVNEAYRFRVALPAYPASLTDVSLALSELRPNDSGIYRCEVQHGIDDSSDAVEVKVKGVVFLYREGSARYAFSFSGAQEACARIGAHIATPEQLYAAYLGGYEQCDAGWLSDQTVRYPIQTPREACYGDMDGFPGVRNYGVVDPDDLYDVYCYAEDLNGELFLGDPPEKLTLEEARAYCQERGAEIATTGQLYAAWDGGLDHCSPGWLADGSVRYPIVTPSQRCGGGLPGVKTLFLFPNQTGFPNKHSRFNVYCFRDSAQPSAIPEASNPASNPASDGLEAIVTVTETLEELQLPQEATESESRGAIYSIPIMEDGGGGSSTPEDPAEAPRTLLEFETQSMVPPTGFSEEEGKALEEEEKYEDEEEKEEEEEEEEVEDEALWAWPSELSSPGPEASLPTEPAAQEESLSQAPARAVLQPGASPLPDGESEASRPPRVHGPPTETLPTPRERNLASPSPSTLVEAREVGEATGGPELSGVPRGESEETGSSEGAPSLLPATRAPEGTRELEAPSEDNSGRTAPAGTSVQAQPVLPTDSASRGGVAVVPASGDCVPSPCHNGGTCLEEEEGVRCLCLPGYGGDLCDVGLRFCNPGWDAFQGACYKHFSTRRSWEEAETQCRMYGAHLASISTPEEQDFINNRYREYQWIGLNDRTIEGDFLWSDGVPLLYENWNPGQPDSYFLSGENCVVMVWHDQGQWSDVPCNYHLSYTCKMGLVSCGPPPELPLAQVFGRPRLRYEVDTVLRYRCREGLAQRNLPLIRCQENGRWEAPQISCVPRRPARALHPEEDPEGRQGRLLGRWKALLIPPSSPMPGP
Experimental: A ForteBio OctetRed384 instrument was used to study the binding kinetics of each peptide to recombinant human brevican (re-suspended in PBS and 0.1 mM EDTA, pH 6.8). The brevican protein was deglycosylated prior to experimental use in water+0.05% tween, PI, sialidase, 0-glycosidase, N-glycosidase in sodium acetate [200 mM], NaCl [250 mM], Tris-HCl [200 mM], pH 7.5.) in the presence of protease inhibitor overnight at 4° C. (this entire composition will be referred to as ‘de-glycosylation buffer’). […] The final volume for all the solutions was 80 μl/well. Assays were performed at 30° C. in solid black 384-well plates (Geiger Bio-One). Prior to beginning, Ni-NTA biosensors were soaked for 10 min in working buffer. Before loading the protein onto each biosensor, a baseline was established in working buffer for 60 s. Deglycosylated brevican (50 μg/ml BΔg; His-tagged) was loaded on the surface of each biosensors for 180 s. […] Reference biosensors were also included in the plate as internal controls, where biosensors were exposed to the ‘de-glycosylation buffer’ lacking brevican protein during the loading step. A 60 s biosensor washing step was applied. Then, biosensors were exposed to the analyte (peptide) in working buffer (ranging between 0-10 μM BTP) for 300 s during the ‘association’ step. Finally, the biosensors were exposed to working buffer (without peptide) during the ‘dissociation’ step for 600 s. Binding affinity of each peptide was assessed through steady state analysis, where the response unit was plotted over peptide concentration. All data was plotted and curves were fitted using the non-linear ‘one-site specific binding’ fit, and the dissociation constant (KD) value was calculated using the GraphPad Prism software.
Binding kinetics analyses were performed using the Octet RED platform (Forte Bio) to measure the binding affinity of BTP-7, 8 and 9 to purified recombinant BΔg protein.

BT188 glioma stem cells = experiment: Peptide uptake in BT188 (BΔg-high) versus BT145 (BΔg-low) glioma stem cells, fluorescence imaging; type: cell-based, human; details: fluorescein-labeled peptides, 5 μM
Text: FIGS. 3A-I. Peptide characterization for BΔg specificity in glioma stem cells. (a) Table summary listing the properties of 7 peptides (composed of 8 D-amino acid residues, SEQ ID NOs:3-9, in order of appearance) that were isolated from the OBOC library screen. MW=molecular weight; KD=Kyte-Doolittle scale for amino acid hydropathy (positive scores indicate […]) (Kyte and Doolittle, J. Mol. Biol. 157, 105-132 (1982)). (b) Chemical structure showing the linkage between the peptide and FITC. (c) Western blot analysis showing the level of BΔg and Bcan in human embryo kidney (HEK) cells, and Bcan-overexpressing HEK cells (HEK-Bcan). […] Each group was normalized to a no-blocking (vehicle) control. Statistics were performed using multiple t-tests, and significance was measured in comparison to each vehicle control (p<0.0001). (e) Uptake of fluorescein-labeled BTP-2, 7, 8, 9, and 10 (at 5 μM conc.) in BT188 (BΔg-high) or BT145 (BΔg-low) glioma stem cells (GSCs). Western blot analysis on the top right confirms the BΔg expression level. […] Statistics were performed using the two-way ANOVA and Tukey's Multiple Comparison test. (f) Chemical structure showing the linkage between the peptide and Cy5.5 dye. (g) Western blot analysis showing the expression of BΔg in GBM-6 cells, with negligible BΔg level in astrocytes or neural progenitor cells (NPC). (h) Graph showing the cell uptake ranking of the top 3 peptide candidates, BTP-7, 8 and 9 in GBM-6 cells as determined by flow cytometry analysis with s.d. error bars (5 μM conc.; nevents=20,000 cells; nexperiment=5). Each group is normalized to the control scramble peptide (Scr-8). Statistics were performed using the one-way ANOVA and Tukey's Multiple Comparison test (significance were measured in comparison to the Scr-8 control). (i) Bar graph showing the uptake of BTP-7, 8 and 9 in GBM-6 cells and NPC with 95% confidence interval error bars (1 μM conc.; nevents=20,000 cells). Statistics were performed using the two-way ANOVA and Sidak's Multiple Comparison test.

CC[C@@H](C)[C@@H](NC(=O)[C@H](N)[C@H](C)O)C(=O)N[C@H](CCCNC(=N)N)C(=O)N[C@H](CCCCN)C(=O)N[C@H](CC(C)C)C(=O)N[C@@H](C(=O)N[C@H](CCCNC(=N)N)C(=O)N[C@H](Cc1c[nH]cn1)C(N)=O)C(C)C [BTP-8] (H-[dT][dI][dR][dK][dL][dV][dR][dH]-NH2; N-terminus and C-terminus assumed)
Kd [1]: 1570 nM | size of the difference in uptake between BT188 and BT145 GSCs (ranking) (BT188 glioma stem cells): largest and most significant difference | uptake in BT188 GSCs compared with BT145 GSCs (BT188 glioma stem cells): greater uptake
